Drawing on patent US8354443B2, “Cyclopropane indolinone derivatives” (Hoffmann-La Roche Inc., priority 2009, dated 2013), this text covers EC50 for 8 compounds.

In the assay the test system is recombinant AMPK proteins (α1β1γ1, α2β1γ1, α1(1-335), α1(1-394) or α2(1-394)). Put plainly: Scintillation Proximity Assay (AMPK activation). The class given is biochemical, human. The settings on record: effective concentration of activator for 50% of maximal enzyme activity; 2 hr at 30° C.; AMPK form not specified. In outline: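 Pre-phosphorylated recombinant human AMPK (α1β1γ1, α2β1γ1, α1(1-335), α1(1-394) or α2(1-394)), 50 nM, incubated 2 hr at 30° C with 2 μM biotin-SAMS, 2 μM ATP plus [γ-33P]ATP, pH 7.5, and varying activator. Product detected by streptavidin SPA beads; EC50 is activator concentration giving 50% of maximal enzyme activity.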

One may read the EC50 as the concentration giving half of the maximal effect. Turning to `O=C1N(CCN2CCCCC2)c2ccccc2[C@@]12C[C@@H]2c1ccc(Cl)cc1` (racemic) [Example 125, (1S,2R) and (1R,2S)-2-(4-chlorophenyl)-1′-(2-(piperidin-1-yl)ethyl)spiro[cyclopropane-1,3′-indolin]-2′-one], the EC50 amounted to 1750 nM. For `O=C1N(CCNCCCN2CCOCC2)c2ccccc2[C@@]12C[C@@H]2c1ccc(Cl)cc1` (racemic) [Example 127, (1S,2R) and (1R,2S)-2-(4-chlorophenyl)-1′-(2-(3-morpholinopropylamino)ethyl) spiro[cyclopropane-1,3′-indolin]-2′-one], the EC50 amounted to 4500 nM. On to `O=C1N(CCNCCN2CCOCC2)c2ccccc2[C@@]12C[C@@H]2c1ccc(Cl)cc1` (racemic) [Example 128, (1S,2R) and (1R,2S)-2-(4-chlorophenyl)-1′-(2-(2-morpholinoethylamino)ethyl) spiro[cyclopropane-1,3′-indolin]-2′-one], for which the concentration for a half-maximal effect (EC50) came to 2040 nM. For `O=C1N(CCN2CCN(c3ccncc3)CC2)c2ccccc2[C@@]12C[C@@H]2c1ccc(Cl)cc1` (racemic) [Example 129, (1S,2R) and (1R,2S)-2-(4-chlorophenyl)-1′-(2-(4-(pyridin-4-yl)piperazin-1-yl)ethyl) spiro[cyclopropane-1,3′-indolin]-2′-one], the EC50 stood at 1680 nM.

`O=C1N(c2c[nH]cn2)c2ccccc2[C@@]12C[C@@H]2c1ccc(Cl)cc1` (racemic) [Example 131, (1S,2R) and (1R,2S)-2-(4-chlorophenyl)-1′-(1H-imidazol-4-yl)spiro[cyclopropane-1,3′-indolin]-2′-one]: the 50% effective concentration (EC50) was found to be 3270 nM. For `CS(=O)(=O)NC(=O)c1cccc(N2C(=O)[C@]3(C[C@@H]3c3ccc(Cl)cc3)c3ccccc32)c1` (racemic) [Example 132, (1S,2R) and (1R,2S)-3-(2-(4-chlorophenyl)-2′-oxospiro[cyclopropane-1,3′-indoline]-1′-yl)-N-(methylsulfonyl)benzamide], the EC50 is 1550 nM. For `CN1CCCC1CCNC(=O)c1cccc(CN2C(=O)[C@]3(C[C@@H]3c3ccc(Cl)cc3)c3ccccc32)c1` (stereo partly drawn) [Example 66, 3-(((1S,2R)-2-(4-chlorophenyl)-2′-oxospiro[cyclopropane-1,3′-indoline]-1′-yl)methyl)-N-(2-((S)-1-methylpyrrolidin-2-yl)ethyl)benzamide and 3-(((1R,2S)-2-(4-chlorophenyl)-2′-oxospiro[cyclopropane-1,3′-indoline]-1′-yl)methyl)-N-(2-((5)-1-methylpyrrolidin-2-yl)ethyl)benzamide] the value was 1070 nM; for “(1R,2R) and (1S,2S)-((2-(4-(methylsulfonyl)phenyl)-2′-oxospiro[cyclopropane-1,3′-indoline]-1′-yl)methyl)benzoic acid [Example 4]”, 2200 nM.
